Laboratory results from patent EP4782444A1, “CRYSTAL FORM OF PYRIMIDINE ANILINE COMPOUND, PREPARATION METHOD, AND USE” (TYK Medicines, Inc., priority 2023, dated 2025).
Converted amounts (≈) assume the structure as drawn. Read-outs that look alike come from different tables or passages of the source. Values belong to the compound of their own block, whether it stands above or below them.

Legend:
EGFR exon 20ins = conditions: advanced non-small cell lung cancer; cited from earlier work
physchem [1] = assay: physchem
[2] = Pharmacokinetic study in rats, single oral gavage; conditions: SD rats, 30 mpk; for AUC0-last / Cmax / T1/2 / Tmax: plasma, 30 mg/kg
Procedure: SD rats received a single oral gavage administration of citrate crystalline form I, mesylate crystalline form I, and free base crystalline form I, respectively. Blood samples were collected at various time points to determine drug concentrations in rat plasma post administration of tested substance and calculate PK-related parameters.
The prepared test sample solutions were analyzed by the analytical department of the present test facility using LC-MS/MS.
Animals were fasted (≥10 h) with free access to water from the day before dosing. On the test day, rats were weighed respectively, marked at the tail, and blank blood samples were collected before administration. Blood was collected via tail vein.
0.1 mL of whole blood was collected into EDTA-Na2 anticoagulant tubes, inverted 3-4 times to mix well, centrifuged at 10,000 g, 4 °C for 5 min to separate plasma, and stored at - 80 °C until analysis. Blood was collected via tail vein.
Plasma samples were analyzed by the analytical department of the test facility using LC-MS/MS.

[3] = 37 °C
[4] = Solid-state stability study (HPLC and XRPD analysis); format: physicochemical
physchem [5] = assay: physchem; remark: listed apart in the source

SMILES: C=CC(=O)Nc1cc(Nc2nccc(Nc3cc(Cl)c(F)cc3C(C)(C)O)n2)c(OC)cc1N1CC[C@@H](N(C)C)C1 [DZD9008]
objective response rate (EGFR exon 20ins): 40%

Solubility (physchem [1]; 1,4-dioxane): < 270 µg/mL
Solubility (physchem [1]; acetone): 2220 to 4440 µg/mL (≈ 3.64 to 7.28 mM)
Solubility (physchem [1]; acetonitrile): 930 to 1010 µg/mL (≈ 1.53 to 1.66 mM)
Solubility (physchem [1]; cyclohexane): < 330 µg/mL
Solubility (physchem [1]; dce): 61800 to 124000 µg/mL (≈ 101 to 203 mM)
Solubility (physchem [1]; dcm): > 107000 µg/mL
Solubility (physchem [1]; dmso): 2600 to 2930 µg/mL (≈ 4.26 to 4.81 mM)
Solubility (physchem [1]; ethanol): < 300 µg/mL
Solubility (physchem [1]; ethyl acetate): < 290 µg/mL
Solubility (physchem [1]; heptane): < 300 µg/mL
Solubility (physchem [1]; ipac): < 300 µg/mL
Solubility (physchem [1]; isopropanol): < 350 µg/mL
Solubility (physchem [1]; mek): 2780 to 4440 µg/mL (≈ 4.56 to 7.28 mM)
Solubility (physchem [1]; meoh): < 400 µg/mL
Solubility (physchem [1]; mtbe): < 330 µg/mL
Solubility (physchem [1]; nmp): 18200 to 27400 µg/mL (≈ 29.9 to 44.9 mM)
Solubility (physchem [1]; thf): 2550 to 3190 µg/mL (≈ 4.18 to 5.23 mM)
Solubility (physchem [1]; water): < 270 µg/mL
AUC0-last [2]: 1122.05 ng·h/mL
Cmax [2]: 126.5 ng/mL
T1/2 [2]: 2.19 h
Tmax [2]: 4 h
Solubility ([3]; FaSSIF, 0.5 h, 30 min): 130 µg/mL (≈ 0.213 mM)
Solubility ([3]; FaSSIF, 2 h, 120 min): 130 µg/mL (≈ 0.213 mM)
Solubility ([3]; FaSSIF, 24 h, 1440 min): 180 µg/mL (≈ 0.295 mM)
Solubility ([3]; FeSSIF, 0.5 h, 30 min): 3530 µg/mL (≈ 5.79 mM)
Solubility ([3]; FeSSIF, 2 h, 120 min): > 5020 µg/mL
Solubility ([3]; FeSSIF, 24 h, 1440 min): > 5020 µg/mL
Solubility ([3]; H2O, 0.5 h, 30 min): 10 µg/mL (≈ 0.0164 mM)
Solubility ([3]; H2O, 2 h, 120 min): 10 µg/mL (≈ 0.0164 mM)
Solubility ([3]; H2O, 24 h, 1440 min): 10 µg/mL (≈ 0.0164 mM)
Solubility ([3]; SGF, 0.5 h, 30 min): >5000 µg/mL
Solubility ([3]; SGF, 2 h, 120 min): > 5000 µg/mL
Solubility ([3]; SGF, 24 h, 1440 min): > 5000 µg/mL
SMILES: C=CC(=O)Nc1cc(Nc2ncc(C(=O)OC(C)C)c(-c3cn(C)c4ccccc34)n2)c(OC)cc1N(C)[C@@H]1[C@@H]2CN(C)C[C@@H]21 [Free base crystalline form I]

Appearance ([4]; 25°C/60%RH, day 3): Unchanged
Crystalline Form ([4]; 25°C/60%RH, day 3, XRPD): Unchanged
Purity % ([4]; 25°C/60%RH, day 3, open vial): 98.19%
Appearance ([4]; 25°C/60%RH, day 7): Unchanged
Crystalline Form ([4]; 25°C/60%RH, day 7, XRPD): Unchanged
Purity % ([4]; 25°C/60%RH, day 7, open vial): 98.24%
Appearance ([4]; 25°C/95±5%RH, day 3): Unchanged
Crystalline Form ([4]; 25°C/95±5%RH, day 3, XRPD): Unchanged
Purity % ([4]; 25°C/95±5%RH, day 3, open vial): 98.17%
Appearance ([4]; 25°C/95±5%RH, day 7): Unchanged
Crystalline Form ([4]; 25°C/95±5%RH, day 7, XRPD): Unchanged
Purity % ([4]; 25°C/95±5%RH, day 7, open vial): 98.20%
Appearance ([4]; 40°C/75%RH, day 3): Unchanged
Crystalline Form ([4]; 40°C/75%RH, day 3, XRPD): Unchanged
Purity % ([4]; 40°C/75%RH, day 3, open vial): 98.17%
Appearance ([4]; 40°C/75%RH, day 7): Unchanged
Crystalline Form ([4]; 40°C/75%RH, day 7, XRPD): Unchanged
Purity % ([4]; 40°C/75%RH, day 7, open vial): 98.16%
Appearance ([4]; 60 °C, day 3): Unchanged
Crystalline Form ([4]; 60 °C, day 3, XRPD): Unchanged
Purity % ([4]; 60 °C, day 3, open vial): 98.15%
Appearance ([4]; 60 °C, day 7): Unchanged
Crystalline Form ([4]; 60 °C, day 7, XRPD): Unchanged
Purity % ([4]; 60 °C, day 7, open vial): 98.12%
Appearance ([4]; 80 °C, day 1): Unchanged
Crystalline Form ([4]; 80 °C, day 1, XRPD): Unchanged
Purity % ([4]; 80 °C, day 1, open vial): 98.38%
Appearance ([4]; 80 °C, day 3): Unchanged
Crystalline Form ([4]; 80 °C, day 3, XRPD): Unchanged
Purity % ([4]; 80 °C, day 3, open vial): 98.24%
Purity % ([4]; day 0 (baseline before storage), mean of 3 parallel experiments): 98.50%
Crystalline Form ([4]; under all five storage conditions): remained unchanged
solubility at 0.5 h (physchem [5]; fessif): > 5010 µg/mL
solubility at 2 h (physchem [5]; fessif): > 5010 µg/mL
solubility at 24 h (physchem [5]; fessif): > 5010 µg/mL
solubility at 0.5 h (physchem [5]; sgf): > 5000 µg/mL
solubility at 2 h (physchem [5]; sgf): > 5000 µg/mL
solubility at 24 h (physchem [5]; sgf): > 5000 µg/mL
in vivo exposure in rats compared with free base crystalline form I [2]: higher
AUC0-last [2]: 1811.31 ng·h/mL
Cmax [2]: 222.5 ng/mL
T1/2 [2]: 2.54 h
Tmax [2]: 3 h
Solubility ([3]; FaSSIF, 0.5 h, 30 min): >5000 µg/mL
Solubility ([3]; FaSSIF, 2 h, 120 min): > 5000 µg/mL
Solubility ([3]; FaSSIF, 24 h, 1440 min): 3410 µg/mL
Solubility ([3]; H2O, 0.5 h, 30 min): >5000 µg/mL
Solubility ([3]; H2O, 2 h, 120 min): > 5000 µg/mL
Solubility ([3]; H2O, 24 h, 1440 min): > 5000 µg/mL
SMILES: C=CC(=O)Nc1cc(Nc2ncc(C(=O)OC(C)C)c(-c3cn(C)c4ccccc34)n2)c(OC)cc1N(C)[C@@H]1[C@@H]2CN(C)C[C@@H]21 [Mesylate crystalline form I]
